Data on 56 compounds can be found in patent US9675614B2, “PRMT5 inhibitors and uses thereof” (Epizyme, Inc., priority 2012, dated 2017).

Some results are limits rather than exact numbers.

PRMT5/MEP50, sequence (O14744 other isoform, or with tags, fused parts or gaps): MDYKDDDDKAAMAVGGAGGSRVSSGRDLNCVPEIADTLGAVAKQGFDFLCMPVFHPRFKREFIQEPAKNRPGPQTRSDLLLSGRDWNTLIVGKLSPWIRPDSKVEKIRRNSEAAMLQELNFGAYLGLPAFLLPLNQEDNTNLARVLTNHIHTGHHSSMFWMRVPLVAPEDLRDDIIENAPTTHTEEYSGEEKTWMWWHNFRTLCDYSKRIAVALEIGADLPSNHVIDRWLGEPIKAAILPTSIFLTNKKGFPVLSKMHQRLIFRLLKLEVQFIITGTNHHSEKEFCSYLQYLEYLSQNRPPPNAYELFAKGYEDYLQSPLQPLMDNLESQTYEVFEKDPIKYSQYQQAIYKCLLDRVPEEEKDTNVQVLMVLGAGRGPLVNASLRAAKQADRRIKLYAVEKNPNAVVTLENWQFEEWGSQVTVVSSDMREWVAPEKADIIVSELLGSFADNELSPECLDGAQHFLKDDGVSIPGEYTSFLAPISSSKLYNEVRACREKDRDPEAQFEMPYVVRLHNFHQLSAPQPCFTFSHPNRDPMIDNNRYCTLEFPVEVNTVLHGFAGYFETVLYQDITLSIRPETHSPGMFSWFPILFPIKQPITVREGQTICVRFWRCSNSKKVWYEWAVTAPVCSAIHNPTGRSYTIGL
PRMT5/MEP50, sequence (Q9BQA1 other isoform, or with tags, fused parts or gaps partner): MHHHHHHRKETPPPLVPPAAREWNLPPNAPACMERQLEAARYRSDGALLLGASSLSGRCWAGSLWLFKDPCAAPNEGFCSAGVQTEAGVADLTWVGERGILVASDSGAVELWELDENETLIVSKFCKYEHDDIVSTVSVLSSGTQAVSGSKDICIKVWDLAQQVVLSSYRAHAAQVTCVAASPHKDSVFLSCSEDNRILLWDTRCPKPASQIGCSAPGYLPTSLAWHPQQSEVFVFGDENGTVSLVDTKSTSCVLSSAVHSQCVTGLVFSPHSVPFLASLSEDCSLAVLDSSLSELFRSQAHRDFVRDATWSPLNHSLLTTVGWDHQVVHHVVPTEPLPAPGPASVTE

This test deals with PRMT5/MEP50 (Homo sapiens (Human), UniProt O14744). In words: PRMT5 Biochemical Assay (PRMT5/MEP50 enzyme assay on peptide substrate, 3H-SAM Flashplate). The following applies: PRMT5/MEP50 biochemical assay; read-out: Biochemical IC50. The text has this:
S-adenosylmethionine (SAM), S-adenosylhomocysteine (SAH), bicine, KCl, Tween20, dimethylsulfoxide (DMSO), bovine skin gelatin (BSG), and Tris(2-carboxyethyl)phosphine hydrochloride solution (TCEP) were purchased from Sigma-Aldrich at the highest level of purity possible. ^3H-SAM was purchase from American Radiolabeled Chemicals with a specific activity of 80 Ci/mmol. 384-well streptavidin Flashplates were purchased from PerkinElmer.
Peptide representative of human histone H4 residues 1-15 was synthesized with a C-terminal linker-affinity tag motif and a C-terminal amide cap by 21st Century Biochemicals. […] The sequence was Ac-[…][K-Biot]amide (SEQ ID NO.:3).
Full-length human MEP50 (NM_024102) clone was amplified from a human testis cDNA library incorporating a 5′ sequence encoding a 6-histidine tag (MHHHHHH) (SEQ ID NO.:5) fused directly to Arg 2 of MEP50. The amplified genes were subcloned into pENTR/D/TEV (Life Technologies) and subsequently transferred by Gateway™ attL×attR recombination to pDEST8 baculvirus expression vector (Life Technologies).
Recombinant baculovirus and Baculovirus-Infected Insect Cells (BIIC) were generated according to Bac-to-Bac kit instructions (Life Technologies) and Wasilko, 2006, respectively. Protein over-expression was accomplished by infecting exponentially growing Spodoptera frugiperda (SF9) cell culture at 1.2×10^6 cell/ml with a 5000 fold dilution of BIIC stock. Infections were carried out at 27° C. for 72 hours, harvested by centrifugation, and stored at −80° C. for purification.
Flag-PRMT5/6His-MeP50 was eluted with 300 mM Imidazole in the same buffer. […] Reference: Wasilko, D. J. and S. E. Lee: “TIPS: titerless infected-cells preservation and scale-up” Bioprocess J., 5 (2006), pp. 29-32.
General Procedure for PRMT5/MEP50 Enzyme Assays on Peptide Substrates.
The assays were all performed in a buffer consisting of 20 mM Bicine (pH=7.6), 1 mM TCEP, 0.005% BSG, and 0.002% Tween20, prepared on the day of use. Compounds in 100% DMSO (1 ul) were spotted into a polypropylene 384-well V-bottom plates (Greiner) using a Platemate Plus outfitted with a 384-channel head (Thermo Scientific). DMSO (1 ul) was added to Columns 11, 12, 23, 24, rows A-H for the maximum signal control and 1 ul of SAH, a known product and inhibitor of PRMT5/MEP50, was added to columns 11, 12, 23, 24, rows I-P for the minimum signal control. A cocktail (40 ul) containing the PRMT5/MEP50 enzyme and the peptide was added by Multidrop Combi (Thermo-Fisher). The compounds were allowed to incubate with PRMT5/MEP50 for 30 min at 25 degrees Celsius, then a cocktail (10 ul) containing ^3H-SAM was added to initiate the reaction (final volume=51 ul). The final concentrations of the components were as follows: PRMT5/MEP50 was 4 nM, ^3H-SAM was 75 nM, peptide was 40 nM, SAH in the minimum signal control wells was 100 uM, and the DMSO concentration was 1%. The assays were stopped by the addition of non-radioactive SAM (10 ul) to a final concentration of 600 uM, which dilutes the ^3H-SAM to a level where its incorporation into the peptide substrate is no longer detectable. 50 ul of the reaction in the 384-well polypropylene plate was then transferred to a 384-well Flashplate and the biotinylated peptides were allowed to bind to the streptavidin surface for at least 1 hour before being washed three times with 0.1% Tween20 in a Biotek ELx405 plate washer. The plates were then read in a PerkinElmer TopCount plate reader to measure the quantity of ^3H-labeled peptide bound to the Flashplate surface, measured as disintegrations per minute (dpm) or alternatively, referred to as counts per minute (cpm).
[formula] Where dpm=disintegrations per minute, cmpd=signal in assay well, and min and max are the respective minimum and maximum signal controls.
[formula] Where top and bottom are the normally allowed to float, but may be fixed at 100 or 0 respectively in a 3-parameter fit.
For orientation: IC50 means the concentration at which inhibition is half-maximal. For `O=C(NCC(O)CN1CCc2ccccc2C1)c1cccc(NCCN2CCOCC2)c1` (centres unmarked) [Compound 61], the IC50 fell in the range of 101 to 1000 nM.
As for `O=C(NCC(O)CN1CCc2ccccc2C1)c1ccnc(NC2CCOCC2)n1` (centres unmarked) [Compound 62], the IC50 is less than 100 nM.
Regarding `O=C(NCC(O)CN1CCc2ccccc2C1)c1cc(NC2CCOCC2)ncn1` (centres unmarked) [Compound 63], the IC50 is less than 100 nM.
As for `O=C(NCC(O)CN1CCc2ccccc2C1)c1cc(Cl)cc(NC2CCOCC2)c1` (centres unmarked) [Compound 64], the IC50 is less than 100 nM.
`O=C(NCC(O)CN1CCc2ccccc2C1)c1ccc(F)c(NC2CCOCC2)c1` (centres unmarked) [Compound 65]: the IC50 was less than 100 nM.
For `O=C(NCC(O)CN1CCc2ccccc2C1)c1ccc(NC2CCOCC2)cc1` (centres unmarked) [Compound 66], the half-maximal inhibitory concentration (IC50) was less than 100 nM.
Take `COc1ccc(C(=O)NCC(O)CN2CCc3ccccc3C2)cc1NC1CCOCC1` (centres unmarked) [Compound 67]: the IC50 was 101 to 1000 nM.
Turning to `O=C(NCC(O)CN1CCc2ccccc2C1)c1ccc2ncccc2c1` (centres unmarked) [Compound 68], the IC50 is less than 100 nM.
`COCCCNc1cccc(C(=O)NCC(O)CN2CCc3ccccc3C2)c1` (centres unmarked) [Compound 69]: the 50% inhibitory concentration (IC50) was 101 to 1000 nM.
In the case of `COCCCNc1cccc(C(=O)NCC(O)CN2CCc3ccccc3C2)c1` (centres unmarked) [Compound 70], the half-inhibitory concentration (IC50) is 101 to 1000 nM.
As for `CN(CC(O)CN1CCc2ccccc2C1)C(=O)c1cccc(NC2CCOCC2)c1` (centres unmarked) [Compound 71], the IC50 lay in the range of 101 to 1000 nM.
With `COCCNc1cccc(C(=O)NCC(O)CN2CCc3ccccc3C2)c1` (centres unmarked) [Compound 72] the figure was 101 to 1000 nM.
Turning to `O=C(NCC(O)CN1CCc2ccccc2C1)c1cccc(NC2CCOCC2)n1` (centres unmarked) [Compound 73], the IC50 is less than 100 nM.
On to `O=C(NCC(O)CN1CCc2ccccc2C1)c1ccnc(NC2CCOCC2)c1` (centres unmarked) [Compound 74], for which the IC50 is less than 100 nM.
The same measure for `O=C(NCC(O)CN1CCc2ccccc2C1)c1cncc(NC2CCOCC2)n1` (centres unmarked) [Compound 75]: 101 to 1000 nM; for `O=C(NCC(O)CN1CCc2ccccc2C1)c1nccc(NC2CCOCC2)n1` (centres unmarked) [Compound 76]: 101 to 1000 nM; for `COc1ccc(NC2CCOCC2)cc1C(=O)NCC(O)CN1CCc2ccccc2C1` (centres unmarked) [Compound 77]: less than 100 nM.
Consider `O=C(NCC(O)CN1CCc2ccccc2C1)c1cc(F)cc(NC2CCOCC2)c1` (centres unmarked) [Compound 78], for which the IC50 is less than 100 nM.
The same measure for `O=C(NCC(O)CN1CCc2ccccc2C1)c1cccc(NC2CCOCC2)c1F` (centres unmarked) [Compound 79]: less than 100 nM; for `O=C(NC[C@H](O)CN1CCc2ccccc2C1)c1cccc(NC2CCOC2)c1` (some centres unmarked) [Compound 80]: less than 100 nM.
Regarding `O=C(NC[C@@H](O)CN1CCc2ccccc2C1)c1cccc(NC2CCOC2)c1` (some centres unmarked) [Compound 81], the IC50 is less than 100 nM.
As to `O=C(NC[C@H](O)CN1CCc2ccccc2C1)c1cccc(OC2CCOCC2)c1` [Compound 82], the IC50 was less than 100 nM.
With `O=C(NC[C@@H](O)CN1CCc2ccccc2C1)c1cccc(OC2CCOCC2)c1` [Compound 83], the concentration for half-maximal inhibition (IC50) was in the range of 101 to 1000 nM.
Take `Cc1ccc2cc(C(=O)NCC(O)CN3CCc4ccccc4C3)ccc2n1` (centres unmarked) [Compound 84, N-(3-(3,4-dihydroisoquinolin-2(1H)-yl)-2-hydroxypropyl)-2-methylquinoline-6-carboxamide]: the IC50 was less than 100 nM.
Consider `O=C(NCC(O)CN1CCc2ccccc2C1)c1ccc2nccnc2c1` (centres unmarked) [Compound 85], for which the half-maximal inhibitory concentration (IC50) lay within 101 to 1000 nM.
Regarding `CC1=NN(c2ccc(C(=O)NCC(O)CN3CCc4ccccc4C3)cc2)C(=O)C1` (centres unmarked) [Compound 86], the half-inhibitory concentration (IC50) was 101 to 1000 nM.
The same measure for `O=C(NCC(O)CN1CCc2ccccc2C1)c1cccc(NCCCO)c1` (centres unmarked) [Compound 87]: 1000 to 10000 nM.
The same measure for `O=C(NCC(O)CN1CCc2ccccc2C1)c1ccc2c(c1)OCCN2` (centres unmarked) [Compound 88]: 101 to 1000 nM; for `O=C1COc2cc(C(=O)NCC(O)CN3CCc4ccccc4C3)ccc2N1` (centres unmarked) [Compound 89]: 101 to 1000 nM.
Take `CCN1CCN(Cc2cccc(C(=O)NCC(O)CN3CCc4ccccc4C3)c2)CC1` (centres unmarked) [Compound 90]: the 50% inhibitory concentration (IC50) is less than 100 nM.
With `CS(=O)(=O)N1CCN(Cc2cccc(C(=O)NCC(O)CN3CCc4ccccc4C3)c2)CC1` (centres unmarked) [Compound 91], the 50% inhibitory concentration (IC50) is less than 100 nM.
Take `O=C(NCC(O)CN1CCc2ccccc2C1)c1cccc(CN2CCN(CC(F)(F)F)CC2)c1` (centres unmarked) [Compound 92]: the IC50 is less than 100 nM.
Turning to `O=C(NCC(O)CN1CCc2ccccc2C1)c1cccc(NC2CCNC2)c1` (centres unmarked) [Compound 93], the half-inhibitory concentration (IC50) was 101 to 1000 nM.
In the case of `O=C(NCC(O)CN1CCc2ccccc2C1)c1cccc(NC2CCNCC2)c1` (centres unmarked) [Compound 94], the IC50 is less than 100 nM.
Take `Cc1ccc(NC2CCOCC2)cc1C(=O)NCC(O)CN1CCc2ccccc2C1` (centres unmarked) [Compound 95]: the IC50 lay in the range of 101 to 1000 nM.
As to `Cc1ccc(NC2CCOC2)cc1C(=O)NCC(O)CN1CCc2ccccc2C1` (centres unmarked) [Compound 96], the half-inhibitory concentration (IC50) was less than 100 nM.
Turning to `Cc1ccc(NC2COC2)cc1C(=O)NCC(O)CN1CCc2ccccc2C1` (centres unmarked) [Compound 97], the IC50 was less than 100 nM.
As for `O=C(NCC(O)CN1CCc2ccccc2C1)c1cccc(NC2CCOCC2O)c1` (centres unmarked) [Compound 98], the IC50 was less than 100 nM.
Take `O=C(NCC(O)CN1CCc2ccccc2C1)c1cccc(C2CCOCC2)c1` (centres unmarked) [Compound 99]: the IC50 was less than 100 nM.
Consider `CC(=O)N1CCN(Cc2cccc(C(=O)NCC(O)CN3CCc4ccccc4C3)c2)CC1` (centres unmarked) [Compound 100], for which the IC50 was less than 100 nM.
With `CC(C)N1CCC(Nc2cccc(C(=O)NCC(O)CN3CCc4ccccc4C3)c2)C1` (centres unmarked) [Compound 101] the figure was less than 100 nM; with `O=C(NCC(O)CN1CCc2ccccc2C1)c1cccc(NC2CCN(CC(F)(F)F)C2)c1` (centres unmarked) [Compound 102], less than 100 nM.
For `CC(C)N1CCC(Nc2cccc(C(=O)NCC(O)CN3CCc4ccccc4C3)c2)CC1` (centres unmarked) [Compound 103], the IC50 was less than 100 nM.
As to `O=C(NCC(O)CN1CCc2ccccc2C1)c1ccc(OC2CCNCC2)cc1` (centres unmarked) [Compound 104], the IC50 was less than 100 nM.
With `CN1CCC(Oc2ccc(C(=O)NCC(O)CN3CCc4ccccc4C3)cc2)CC1` (centres unmarked) [Compound 105] the figure was less than 100 nM; with `CC(C)N1CCC(Oc2ccc(C(=O)NCC(O)CN3CCc4ccccc4C3)cc2)CC1` (centres unmarked) [Compound 106], less than 100 nM; with `CC(=O)N1CCC(Oc2ccc(C(=O)NCC(O)CN3CCc4ccccc4C3)cc2)CC1` (centres unmarked) [Compound 107], less than 100 nM.
Turning to `CS(=O)(=O)N1CCC(Oc2ccc(C(=O)NCC(O)CN3CCc4ccccc4C3)cc2)CC1` (centres unmarked) [Compound 108], the half-maximal inhibitory concentration (IC50) was less than 100 nM.
Take `O=C(NCC(O)CN1CCc2ccccc2C1)c1ccc(OC2CCN(CC(F)(F)F)CC2)cc1` (centres unmarked) [Compound 109]: the IC50 is less than 100 nM.
On to `O=C(NCC(O)CN1CCc2ccccc2C1)c1ccc(-n2cncn2)cc1` (centres unmarked) [Compound 110], for which the IC50 was less than 100 nM.
The same measure for `CN(C[C@H](O)CN1CCc2ccccc2C1)C(=O)c1cccc(NC2CCOCC2)c1` [Compound 111]: less than 100 nM; for `O=C(NCC(O)CN1CCc2ccccc2C1)c1cn[nH]c1-c1ccccc1` (centres unmarked) [Compound 112]: 101 to 1000 nM; for `O=C(NCC(O)CN1CCc2ccccc2C1)c1cccc(CN2CCN(CCO)CC2)c1` (centres unmarked) [Compound 113]: less than 100 nM.
`COCCN1CCN(Cc2cccc(C(=O)NCC(O)CN3CCc4ccccc4C3)c2)CC1` (centres unmarked) [Compound 114]: the IC50 was less than 100 nM.
With `CN1CCN(Cc2cccc(C(=O)NCC(O)CN3CCc4ccccc4C3)c2)C(CO)C1` (centres unmarked) [Compound 115] the figure was less than 100 nM.
The same measure for `NC(=O)CNCc1cccc(C(=O)NCC(O)CN2CCc3ccccc3C2)c1` (centres unmarked) [Compound 116]: 101 to 1000 nM.
